The source of these data is patent US20230295141A1, “FXR SMALL MOLECULE AGONIST, THE PREPARATION AND USE THEREOF” (Cascade Pharmaceuticals, Inc., priority 2022, published 2023).

For the assay, the target named is T1, FXR (Homo sapiens, UniProt Q96RI1).
T1 construct: expressed in transfected cells; host or cells: HEK293T
T1 sequence (Q96RI1 212-476 isoform Q96RI1-1 limits assumed): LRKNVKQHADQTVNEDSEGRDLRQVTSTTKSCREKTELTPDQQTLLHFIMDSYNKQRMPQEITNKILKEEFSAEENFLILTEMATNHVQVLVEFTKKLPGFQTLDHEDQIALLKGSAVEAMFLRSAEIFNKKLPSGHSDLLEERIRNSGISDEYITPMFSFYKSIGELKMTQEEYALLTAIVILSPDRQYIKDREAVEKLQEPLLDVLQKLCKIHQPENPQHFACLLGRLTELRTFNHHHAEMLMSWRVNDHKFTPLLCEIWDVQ
In words: FXR agonistic activity by GAL4-FXR-LBD reporter gene (Dual-Glo luciferase) detection in HEK293T cells. It is filed as cell-based. The text has this: Methods for Detecting FXR Agonistic Activity of Compounds Based on Reporter Gene Activity Detection Methods: The pGAL4-FXR-LBD and pG5-Luc plasmids used in the reporter gene detection system were constructed according to conventional molecular cloning methods, including main steps: the FXR (NM_001206979.2) cDNA sequence corresponding to the amino acid sequence of FXR-LBD (212-476AA) was inserted into pGAL4 vector between BamHI and Notl restriction sites using PCR technology to obtain pGAL4-FXR-LBD; pG5-Luc and phRL-TK plasmids were donated by Shanghai Institute of Materia Medica, Chinese Academy of Sciences; the plasmid was transformed into DH5a Escherichia coli by the CaC12 method, and after further culture and amplification, the corresponding plasmid DNA was purified and obtained with a plasmid extraction kit (TIANGEN, #D107). HEK293T cells were seeded in 96-well plates at a density of 1×10^4/well one day before plasmid transfection. Cell transfection was performed according to the instructions of the transfection reagent FuGENE® HD (Promega, #E2311), including main steps: […] 0.25 uL of FuGENE® HD was added, mixed well and let stand for 5 min at room temperature; then 10 uL of this mixture was added to the cell well containing 100 uL of culture medium. […] Then the diluted compounds were added to the cell culture medium for treatment for 24 h. 2 duplicate wells were set up in total. […] After cells were treated with compounds for 24 h, detections were performed according to the instructions of the Dual-Glo® Luciferase Assay System (Promega, #E2940), including main steps: […] then 40 uL of Dual-Glo® Stop & Glo® reagent were added and shaken at room temperature for 10 min; the luminescence signal value of Renilla luciferase (Renilla-Luc) was detected by the MD i3x multifunctional microplate reader; The ratio of Firefly-Luc/Renilla-Luc was used as the activating activity of the compound on FXR, and normalized by the ratio of the solvent DMSO group. The dose- response curves were fitted with four parameters using GraphPad Prism 6.0 software, and EC50 values were calculated.
A general note: Reporter assays use an easily measured gene product as a stand-in for the process of interest.

[1] abbreviates: Cellular Level Activity EC50(nM) of FXR, HEK293T cells, pGAL4-FXR-LBD/pG5-Luc reporter, 24 h treatment.
Setting [2] is: HEK293T cells, pGAL4-FXR-LBD/pG5-Luc reporter, 24 h treatment, read-out: Cellular Level Activity EC50(nM) of FXR.
Where [3] appears, read: EC50 values (FXR agonistic activity), HEK293T reporter gene assay.
The mark [4] stands for this setting: HEK293T reporter gene assay, read-out: EC50 values (FXR agonistic activity).

As a reminder, the EC50 is the concentration that produces a half-maximal response.

Where two headings read alike, the source gives them in different places.

Take `O=c1[nH]c(-c2ccc(N3[C@@H]4CC[C@H]3C[C@@H](OCc3c(-c5c(Cl)cccc5Cl)noc3C3CC3)C4)cc2F)no1` [Control 1, reference compound]: under setting [1], the EC50 was in the range of 5 to 10 nM.
For `[2H]C([2H])(O[C@H]1C[C@H]2CC[C@@H](C1)N2c1ccc(-c2noc(=O)[nH]2)c(OC)c1)c1c(-c2c(Cl)cccc2Cl)noc1C1CC1` [Example 6], the concentration giving a half-maximal response (EC50) under setting [2] lay in the range of 5 to 10 nM.
In the case of `[2H]C([2H])(O[C@H]1C[C@H]2CC[C@@H](C1)N2c1ccc(-c2noc(=O)[nH]2)c(F)c1)c1c(-c2ccccc2C(F)(F)F)noc1C1CC1` [Example 8], the EC50 under setting [2] was 5 to 10 nM.
On the same count and under the same terms, the figure for `[2H]C([2H])(O[C@H]1C[C@H]2CC[C@@H](C1)N2c1ccc(-c2noc(=O)[nH]2)c(C)c1)c1c(-c2c(Cl)cccc2Cl)noc1C1CC1` [Example 5] is 5 to 10 nM.
On to `[2H]C([2H])(O[C@H]1C[C@H]2CC[C@@H](C1)N2c1ccc(-c2noc(=O)[nH]2)c(F)c1)c1c(-c2c(Cl)cccc2Cl)noc1C1CC1` [Example 3], for which the EC50 reads like this: under setting [1], less than 5 nM; under setting [3], less than 5 nM. The “FXR agonistic / cellular level activity, in words” value (HEK293T reporter gene assay, comparison with LJN452 and Control 1) is on record as “significantly improved activity”.
For `[2H]C([2H])(O[C@H]1C[C@H]2CC[C@@H](C1)N2c1ccc(-c2noc(=O)[nH]2)c(C(F)(F)F)c1)c1c(-c2c(Cl)cccc2Cl)noc1C1CC1` [Example 7], the concentration giving a half-maximal response (EC50) under setting [2] fell in the range of 5 to 10 nM.
For the molecule `[2H]C([2H])(O[C@H]1C[C@H]2CC[C@@H](C1)N2c1ccc(-c2noc(=O)[nH]2)cc1)c1c(-c2c(Cl)cccc2Cl)noc1C1CC1` [Example 1], the EC50 was less than 5 nM under setting [2] and less than 5 nM under setting [4].
For the molecule `[2H]C([2H])(O[C@H]1C[C@H]2CC[C@@H](C1)N2c1ccc(-c2noc(=O)[nH]2)nc1)c1c(-c2c(Cl)cccc2Cl)noc1C1CC1` [Example 2], the EC50 is, setting by setting: under setting [2], less than 5 nM; under setting [4], less than 5 nM.
As to `[2H]C([2H])(O[C@H]1C[C@H]2CC[C@@H](C1)N2c1ccc(-c2noc(=O)[nH]2)c(F)c1)c1c(-c2ccccc2OC(F)(F)F)noc1C1CC1` [Example 9], under setting [2], the EC50 was in the range of 5 to 10 nM.
As to `[2H]C(O[C@H]1C[C@H]2CC[C@@H](C1)N2c1ccc(-c2noc(=O)[nH]2)c(F)c1)c1c(-c2c(Cl)cccc2Cl)noc1C1CC1` (stereo partly drawn) [Example 4], the EC50 runs as follows: under setting [1], less than 5 nM; under setting [3], less than 5 nM.
